The results in this text go back to publication PMC9497675, “Explore the Interaction between Ellagic Acid and Zein Using Multi-Spectroscopy Analysis and Molecular Docking” (Foods, 2022).

The target of the experiment is T1, zein.
T1 construct: gene alpha-zein
Briefly: intrinsic fluorescence quenching (ex […] nm), modified Stern-Volmer double-log plot. To be noted: 298 K; 0.05 mg/mL zein in 70% aqueous ethanol; EA stock in 50% methanol; n = 1.2786; apparent constant. The format is binding, Zea mays.

For `O=c1oc2c(O)c(O)cc3c(=O)oc4c(O)c(O)cc1c4c23` [EA, ellagic acid], the “KA (L/mol)” value is 9.47 × 10^2.
